Values belong to the compound of their own block, whether it stands above or below them. The source made the active and inactive calls.
Experiments:
[1] = biological target: Eukaryotic translation initiation factor 4H (Homo sapiens, UniProt Q15056); assay: human eIF4H binding inhibitors, primary screen, translation initiation inhibitor project, biochemical, uHTS, fluorescence polarization (AID 2012)
[2] = biological target: Polyadenylate-binding protein 1 (Homo sapiens, UniProt P11940); assay: PABP poly(A) RNA binding inhibitors, primary screen, biochemical, fluorescence polarization, uHTS (AID 2014)
Salmon testes DNA = assay: DNA intercalators displacing acridine orange, dose response, artefact control for KSHV LANA DNA-binding inhibitor project, biochemical, fluorescence polarization, cherry-picked samples, set 2 (AID 504727); design: species or system Salmonidae
[3] = biological target: Neuropeptide Y receptor type 2 (Homo sapiens, UniProt P49146); assay: Fluorescence-based counterscreen for agonists of NPY-Y1: cell-based high-throughput dose response assay for agonists of NPY-Y2.; type: functional
HEK293 = assay: Fluorescence-based counterscreen for potentiators or agonists of NPY-Y1: cell-based high-throughput dose response assay for inhibitors of cyclic nucleotide gated ion channel (CNGC) activity. In this assay, the parental HEK293 cell line transfected with a cyclic-nucleotide gated ion channel (CNGC)-based cAMP sensor is used to measure inhibition of isoproterenol-induced CNGC …; type: functional; settings: Homo sapiens
[4] = biological target: Neuropeptide Y receptor type 1 (Homo sapiens, UniProt P25929); assay: Fluorescence-based dose response cell-based high-throughput screening assay for agonists of NPY-Y1. [Related pubchem assays: 1697 (Screening assay (NPY-Y1 agonists).), 1359 (Screening assay (NPY-Y2 potentiators or agonists).), 1304 (Screening assay (NPY-Y1 potentiators or agonists).), 1704 (Screening assay (CNGC inhibitors).), 1791 (Summary AID.)]; type: functional
Sequence of Neuropeptide Y receptor type 1 (P25929 whole entry): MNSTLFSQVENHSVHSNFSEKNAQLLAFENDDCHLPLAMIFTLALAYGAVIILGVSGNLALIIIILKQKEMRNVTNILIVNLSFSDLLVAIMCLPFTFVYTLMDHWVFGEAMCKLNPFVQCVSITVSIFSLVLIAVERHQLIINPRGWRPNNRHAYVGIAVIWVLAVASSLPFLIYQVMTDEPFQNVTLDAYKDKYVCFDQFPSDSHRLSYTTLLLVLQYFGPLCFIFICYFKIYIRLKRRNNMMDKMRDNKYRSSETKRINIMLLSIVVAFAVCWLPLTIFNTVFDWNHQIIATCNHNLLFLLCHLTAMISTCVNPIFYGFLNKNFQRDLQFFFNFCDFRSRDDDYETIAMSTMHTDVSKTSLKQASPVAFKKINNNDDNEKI

[5] = biological target: Neurotensin receptor type 1 (Homo sapiens, UniProt P30989); type: functional;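 also: Image-based confirmatory dose-response assay measuring agonist activity at NTR1; NTR1-expressing U2OS osteosarcoma cells imaged for beta-arrestin GFP spot formation; agonist potency where compounds increase beta-arrestin recruitment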
Bcl-2-like protein 10 = Bcl-2-like protein 10 (Homo sapiens, UniProt Q9HD36); assay: displacers of TR3 peptide from Bcl-B, primary screen, selectivity assay for Bfl-1 inhibitor project, biochemical, fluorescence polarization, FITC-TR3 peptide (AID 748);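 also: fluorescence polarization from a fluorescein-labelled TR3 peptide binding purified Bcl-B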
Sequence of Bcl-2-like protein 10 (Q9HD36 whole entry): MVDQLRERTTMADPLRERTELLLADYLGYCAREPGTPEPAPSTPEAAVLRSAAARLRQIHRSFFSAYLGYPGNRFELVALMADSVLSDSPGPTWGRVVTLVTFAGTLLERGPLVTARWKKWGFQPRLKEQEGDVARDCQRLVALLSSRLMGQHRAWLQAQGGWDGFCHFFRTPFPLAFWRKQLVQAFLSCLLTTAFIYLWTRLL

Estrogen receptor = biological target: T1, Estrogen receptor (Homo sapiens, UniProt P03372);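 also: potency for inhibiting coactivator peptide recruitment to the receptor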
T1 sequence (P03372 whole entry): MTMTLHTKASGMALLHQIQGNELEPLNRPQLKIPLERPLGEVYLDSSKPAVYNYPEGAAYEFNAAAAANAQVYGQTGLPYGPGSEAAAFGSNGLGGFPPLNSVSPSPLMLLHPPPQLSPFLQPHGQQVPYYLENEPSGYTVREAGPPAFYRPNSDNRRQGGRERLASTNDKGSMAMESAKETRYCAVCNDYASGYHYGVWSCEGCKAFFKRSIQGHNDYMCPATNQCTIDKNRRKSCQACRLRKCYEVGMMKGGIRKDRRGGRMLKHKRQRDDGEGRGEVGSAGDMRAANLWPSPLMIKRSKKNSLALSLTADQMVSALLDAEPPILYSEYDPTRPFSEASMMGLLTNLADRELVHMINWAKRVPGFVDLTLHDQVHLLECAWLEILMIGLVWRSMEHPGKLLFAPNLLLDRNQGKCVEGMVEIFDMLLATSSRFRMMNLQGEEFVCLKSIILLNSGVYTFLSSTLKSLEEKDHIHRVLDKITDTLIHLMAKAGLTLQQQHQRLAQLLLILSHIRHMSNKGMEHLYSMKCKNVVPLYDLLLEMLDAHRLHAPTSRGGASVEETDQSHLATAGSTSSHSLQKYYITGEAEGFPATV

[6] = biological target: T2, Voltage-gated N-type calcium channel alpha-1B subunit/Amyloid beta A4 precursor protein-binding family A member 1 (Homo sapiens, UniProt Q00975+Q02410); type: protein assay
T2 sequence (Q00975 whole entry): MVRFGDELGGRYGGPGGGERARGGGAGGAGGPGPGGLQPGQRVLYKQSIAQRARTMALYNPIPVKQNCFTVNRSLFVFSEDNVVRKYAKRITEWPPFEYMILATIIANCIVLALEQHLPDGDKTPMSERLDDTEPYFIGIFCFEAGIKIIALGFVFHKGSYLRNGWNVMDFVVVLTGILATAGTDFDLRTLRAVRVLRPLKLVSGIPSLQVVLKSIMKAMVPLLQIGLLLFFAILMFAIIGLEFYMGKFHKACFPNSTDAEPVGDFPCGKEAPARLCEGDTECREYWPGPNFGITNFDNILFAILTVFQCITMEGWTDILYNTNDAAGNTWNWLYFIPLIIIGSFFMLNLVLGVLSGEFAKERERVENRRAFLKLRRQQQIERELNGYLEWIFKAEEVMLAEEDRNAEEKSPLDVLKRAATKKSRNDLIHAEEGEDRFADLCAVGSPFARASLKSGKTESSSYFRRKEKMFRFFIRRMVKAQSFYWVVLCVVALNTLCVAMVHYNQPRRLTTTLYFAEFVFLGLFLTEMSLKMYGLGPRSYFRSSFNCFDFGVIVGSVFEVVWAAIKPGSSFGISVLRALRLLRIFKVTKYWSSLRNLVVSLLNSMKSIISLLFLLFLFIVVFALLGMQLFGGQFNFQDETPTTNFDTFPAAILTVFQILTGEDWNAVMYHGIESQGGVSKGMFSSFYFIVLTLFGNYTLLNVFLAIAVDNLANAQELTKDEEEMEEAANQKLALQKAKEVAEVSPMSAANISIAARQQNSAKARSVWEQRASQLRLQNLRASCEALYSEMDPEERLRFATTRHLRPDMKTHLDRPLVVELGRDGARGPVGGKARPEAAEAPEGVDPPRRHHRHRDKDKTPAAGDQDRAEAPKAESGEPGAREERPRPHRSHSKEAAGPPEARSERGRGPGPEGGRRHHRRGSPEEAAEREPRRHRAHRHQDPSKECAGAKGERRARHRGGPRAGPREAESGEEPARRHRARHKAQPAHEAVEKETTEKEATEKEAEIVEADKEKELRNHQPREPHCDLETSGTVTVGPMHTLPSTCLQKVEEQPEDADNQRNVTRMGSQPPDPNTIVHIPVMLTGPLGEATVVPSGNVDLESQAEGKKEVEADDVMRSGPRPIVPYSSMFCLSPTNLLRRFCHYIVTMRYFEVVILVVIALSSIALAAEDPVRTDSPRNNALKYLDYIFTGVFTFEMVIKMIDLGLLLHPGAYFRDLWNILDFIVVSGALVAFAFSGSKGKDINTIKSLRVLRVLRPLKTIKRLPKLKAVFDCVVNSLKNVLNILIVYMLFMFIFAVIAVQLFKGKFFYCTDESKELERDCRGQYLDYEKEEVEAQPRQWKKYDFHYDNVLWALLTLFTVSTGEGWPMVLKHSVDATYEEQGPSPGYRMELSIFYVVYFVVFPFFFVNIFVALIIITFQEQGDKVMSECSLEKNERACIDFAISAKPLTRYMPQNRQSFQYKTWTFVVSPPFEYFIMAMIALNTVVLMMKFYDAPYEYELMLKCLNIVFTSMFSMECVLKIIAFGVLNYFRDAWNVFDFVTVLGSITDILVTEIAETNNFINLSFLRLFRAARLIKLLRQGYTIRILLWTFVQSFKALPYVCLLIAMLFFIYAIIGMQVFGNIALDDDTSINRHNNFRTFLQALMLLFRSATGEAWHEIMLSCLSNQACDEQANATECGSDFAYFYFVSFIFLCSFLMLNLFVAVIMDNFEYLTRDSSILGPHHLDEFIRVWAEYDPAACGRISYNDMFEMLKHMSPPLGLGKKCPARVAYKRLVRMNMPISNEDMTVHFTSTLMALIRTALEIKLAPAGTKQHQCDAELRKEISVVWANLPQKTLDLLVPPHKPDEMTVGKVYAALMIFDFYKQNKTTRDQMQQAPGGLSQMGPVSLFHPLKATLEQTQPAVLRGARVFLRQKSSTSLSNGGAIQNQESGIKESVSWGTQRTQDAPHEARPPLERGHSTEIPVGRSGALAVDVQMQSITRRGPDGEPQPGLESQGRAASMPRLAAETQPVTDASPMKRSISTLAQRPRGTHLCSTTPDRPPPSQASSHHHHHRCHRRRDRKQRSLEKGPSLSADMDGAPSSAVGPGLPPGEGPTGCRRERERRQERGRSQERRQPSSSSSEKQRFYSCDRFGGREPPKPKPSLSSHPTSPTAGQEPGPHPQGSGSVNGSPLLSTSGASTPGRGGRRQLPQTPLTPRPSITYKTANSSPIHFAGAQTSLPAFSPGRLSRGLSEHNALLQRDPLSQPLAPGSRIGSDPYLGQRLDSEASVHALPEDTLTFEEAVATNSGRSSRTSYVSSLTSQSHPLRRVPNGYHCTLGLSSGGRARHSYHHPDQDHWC
T2 sequence (Q02410 whole entry): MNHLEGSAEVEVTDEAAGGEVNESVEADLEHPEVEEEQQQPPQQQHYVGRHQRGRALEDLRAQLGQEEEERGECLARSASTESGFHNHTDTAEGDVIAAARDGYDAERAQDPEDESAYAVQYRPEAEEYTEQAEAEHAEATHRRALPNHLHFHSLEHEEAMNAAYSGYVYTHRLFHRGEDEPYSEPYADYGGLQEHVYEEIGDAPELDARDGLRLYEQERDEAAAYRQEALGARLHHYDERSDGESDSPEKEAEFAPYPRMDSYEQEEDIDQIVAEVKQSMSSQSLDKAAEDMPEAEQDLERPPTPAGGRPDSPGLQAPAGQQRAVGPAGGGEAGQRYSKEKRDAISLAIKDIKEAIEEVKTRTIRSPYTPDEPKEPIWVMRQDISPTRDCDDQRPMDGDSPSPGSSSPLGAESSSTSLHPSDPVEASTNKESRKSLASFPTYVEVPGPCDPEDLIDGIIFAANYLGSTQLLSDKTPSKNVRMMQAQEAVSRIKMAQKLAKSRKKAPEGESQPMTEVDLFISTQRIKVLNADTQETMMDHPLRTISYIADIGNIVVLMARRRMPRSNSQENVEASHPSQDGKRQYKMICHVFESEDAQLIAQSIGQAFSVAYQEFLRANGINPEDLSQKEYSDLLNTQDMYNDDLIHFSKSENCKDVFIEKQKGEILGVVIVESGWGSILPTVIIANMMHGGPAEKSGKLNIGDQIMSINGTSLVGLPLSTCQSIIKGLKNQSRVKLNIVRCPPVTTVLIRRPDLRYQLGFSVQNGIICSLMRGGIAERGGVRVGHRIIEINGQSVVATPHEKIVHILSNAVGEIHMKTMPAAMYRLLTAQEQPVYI

[7] = biological target: T2, Voltage-gated N-type calcium channel alpha-1B subunit/Amyloid beta A4 precursor protein-binding family A member 1; type: protein assay; remark: listed apart in the source
[8] = biological target: Glucose-6-phosphate 1-dehydrogenase (Homo sapiens, UniProt P11413); assay: human G6PD enzyme inhibitors, dose response, selectivity assay for P. falciparum G6PD inhibitor project, biochemical, fluorescence (AID 504792); type: functional
[9] = biological target: DNA dC->dU-editing enzyme APOBEC-3G (Homo sapiens, UniProt Q9HC16); assay: Dose Response confirmation of small molecule APOBEC3G DNA Deaminase Inhibitors via a fluorescence-based single-stranded DNA deaminase assay. [Related pubchem assays (depositor defined):AID493012, AID493028]; type: functional
Cytochrome P450 2D6 = Cytochrome P450 2D6 (Homo sapiens, UniProt P10635); assay: qHTS Assay for Inhibitors and Substrates of Cytochrome P450 2D6. [Related pubchem assays: 410 ]; type: ADME; settings: read-out: Potency
[10] = biological target: Intestinal-type alkaline phosphatase (Mus musculus, UniProt P24822); assay: PubChem AID 488874; type: functional
Sequence of Intestinal-type alkaline phosphatase (Mus musculus, UniProt P24822) (P24822 whole entry): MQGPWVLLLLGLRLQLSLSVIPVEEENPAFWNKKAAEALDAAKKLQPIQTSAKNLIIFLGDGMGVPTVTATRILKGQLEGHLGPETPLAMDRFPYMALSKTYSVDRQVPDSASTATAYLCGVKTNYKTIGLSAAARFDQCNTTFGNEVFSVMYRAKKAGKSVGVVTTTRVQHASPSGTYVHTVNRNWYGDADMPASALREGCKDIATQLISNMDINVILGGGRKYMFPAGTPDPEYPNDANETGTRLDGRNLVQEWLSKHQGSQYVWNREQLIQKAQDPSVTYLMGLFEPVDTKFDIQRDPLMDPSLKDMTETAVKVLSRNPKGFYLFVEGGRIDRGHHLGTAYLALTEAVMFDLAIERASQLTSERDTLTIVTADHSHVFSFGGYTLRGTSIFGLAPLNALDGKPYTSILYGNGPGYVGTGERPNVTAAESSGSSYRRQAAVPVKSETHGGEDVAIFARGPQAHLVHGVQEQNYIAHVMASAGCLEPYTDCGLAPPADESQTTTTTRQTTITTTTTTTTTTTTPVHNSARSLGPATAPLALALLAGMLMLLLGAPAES

[11] = biological target: T3, Intestinal-type alkaline phosphatase (Homo sapiens, UniProt P09923); assay: human intestinal alkaline phosphatase activators, dose response, biochemical, luminescence, uHTS hits (AID 463120); type: functional
T3 sequence (P09923 whole entry): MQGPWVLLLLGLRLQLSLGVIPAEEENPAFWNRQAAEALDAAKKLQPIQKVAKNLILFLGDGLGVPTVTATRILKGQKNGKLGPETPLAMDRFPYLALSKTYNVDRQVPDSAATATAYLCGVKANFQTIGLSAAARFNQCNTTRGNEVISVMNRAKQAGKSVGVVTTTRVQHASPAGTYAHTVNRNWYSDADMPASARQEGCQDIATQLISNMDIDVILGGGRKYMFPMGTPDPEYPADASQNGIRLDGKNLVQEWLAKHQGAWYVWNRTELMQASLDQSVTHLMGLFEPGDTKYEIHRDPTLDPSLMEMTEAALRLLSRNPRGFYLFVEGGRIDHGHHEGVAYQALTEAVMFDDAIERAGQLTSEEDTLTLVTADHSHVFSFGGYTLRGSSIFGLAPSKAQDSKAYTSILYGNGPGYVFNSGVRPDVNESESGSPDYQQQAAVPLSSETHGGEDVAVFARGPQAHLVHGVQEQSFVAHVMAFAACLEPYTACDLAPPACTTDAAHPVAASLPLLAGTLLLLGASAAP

[12] = biological target: T3, Intestinal-type alkaline phosphatase; assay: human IAP activators, dose response, biochemical, luminescent, uHTS hits, set 2 (AID 488817); type: functional;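 also: potency of activators that raise enzyme activity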
[13] = biological target: T4, Alkaline phosphatase, tissue-nonspecific isozyme (Homo sapiens, UniProt P05186); assay: TNAP enzyme activators, dose response, selectivity assay for human IAP activator project, biochemical, TNAP isozyme, human IAP uHTS hits (AID 488886); type: functional;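 also: potency of compounds raising TNAP activity as a selectivity check on IAP activators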
T4 sequence (P05186 whole entry): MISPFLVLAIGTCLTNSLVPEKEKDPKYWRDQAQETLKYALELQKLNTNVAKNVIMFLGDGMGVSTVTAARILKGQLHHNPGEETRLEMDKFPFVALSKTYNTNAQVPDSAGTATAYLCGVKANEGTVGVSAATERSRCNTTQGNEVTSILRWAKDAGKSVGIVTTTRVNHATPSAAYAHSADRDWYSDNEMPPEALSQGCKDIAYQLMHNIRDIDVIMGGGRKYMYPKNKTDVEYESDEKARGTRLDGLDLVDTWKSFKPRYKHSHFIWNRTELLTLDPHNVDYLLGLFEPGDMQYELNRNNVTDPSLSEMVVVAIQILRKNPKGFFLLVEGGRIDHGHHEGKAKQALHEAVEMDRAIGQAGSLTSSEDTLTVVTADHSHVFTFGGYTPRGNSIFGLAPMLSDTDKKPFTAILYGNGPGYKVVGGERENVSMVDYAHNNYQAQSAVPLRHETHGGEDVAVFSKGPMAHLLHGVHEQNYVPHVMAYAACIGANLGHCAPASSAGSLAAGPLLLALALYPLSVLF

[14] = biological target: Acyl-homoserine lactone acylase PvdQ (Pseudomonas aeruginosa (strain LESB58), UniProt Q9I194); assay: P. aeruginosa PvdQ acylase inhibitors, dose response, biochemical, fluorescence, plate reader and imaging, cherry-picks (AID 493231)
[15] = biological target: cAMP-dependent protein kinase catalytic subunit alpha (Homo sapiens, UniProt P17612); assay: PKA catalytic subunit inhibitors, dose response, biochemical, Caliper mobility shift, dry powder samples (AID 504583)
[16] = biological target: 26S proteasome non-ATPase regulatory subunit 14 (Homo sapiens, UniProt O00487); assay: inhibition of proteasome subunit RPN11 – biochemical, fluorescence polarization, uHTS hits, confirmation (AID 602368); type: functional
[17] = biological target: 72 kDa type IV collagenase (Homo sapiens, UniProt P08253); assay: Dose Response validation of uHTS RPN11 inhibitor hits using a MMP-2 Fluorescence assay.; type: functional
Prothrombin = Prothrombin (Bos taurus, UniProt P00735); assay: thrombin inhibition, dose response, biochemical, fluorescence polarization, uHTS hits (AID 602369); type: functional
[18] = biological target: T5, Small ubiquitin-related modifier 1 (Homo sapiens, UniProt P63165); assay: inhibitors of SUMO1 peptide binding, dose response, biochemical, fluorescence polarization, uHTS hits (AID 624382); type: functional; settings: read-out: IC50_Mean
T5 sequence (P63165 whole entry): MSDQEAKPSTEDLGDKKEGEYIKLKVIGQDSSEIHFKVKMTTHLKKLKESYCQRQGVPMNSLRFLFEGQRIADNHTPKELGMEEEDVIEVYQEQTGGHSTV

[19] = biological target: T5, Small ubiquitin-related modifier 1; assay: inhibitors of SUMO1 partner interactions, dose response, biochemical, FRET (AID 624383); type: functional; settings: read-out: IC50_Mean
[20] = HepG2 cell cytotoxicity, dose response, cytotoxicity control, ATP luminescence, cherry-pick, set 6 (AID 1053125); type: functional, cell-based
Caspase-6 = biological target: T6, Caspase-6 (Homo sapiens, UniProt P55212); assay: human caspase-6 inhibitors, dose response, biochemical, VEID-R110 fluorescence, cherry-pick (AID 720632)
T6 sequence (P55212 whole entry): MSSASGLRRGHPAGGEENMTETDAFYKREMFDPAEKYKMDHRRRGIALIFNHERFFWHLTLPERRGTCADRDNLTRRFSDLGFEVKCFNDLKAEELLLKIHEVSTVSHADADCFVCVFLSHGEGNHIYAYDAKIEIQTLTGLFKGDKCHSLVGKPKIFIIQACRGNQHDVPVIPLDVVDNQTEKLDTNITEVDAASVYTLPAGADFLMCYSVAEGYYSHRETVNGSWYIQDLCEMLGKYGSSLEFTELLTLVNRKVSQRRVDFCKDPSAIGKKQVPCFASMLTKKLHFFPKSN

cells = settings: A549
SUMO E1/E2 = SUMO E1/E2 (Homo sapiens, UniProt P63279+Q9UBE0+Q9UBT2); assay: SAR analysis of SUMOylation using HTRF in an in-Vitro dose response assay. [Related pubchem assays (depositor defined):AID2006, AID2011, AID2018, AID2069, AID2658]; type: functional
[21] = biological target: T2, Voltage-gated N-type calcium channel alpha-1B subunit/Amyloid beta A4 precursor protein-binding family A member 1; assay: disruptors of Mint-PDZ/N-type channel peptide interaction – biochemical, HTRF, set 2, SAR follow-up (AID 434980); type: functional
[22] = biological target: T2, Voltage-gated N-type calcium channel alpha-1B subunit/Amyloid beta A4 precursor protein-binding family A member 1; assay: disruptors of Mint-PDZ/N-type channel peptide interaction – biochemical, HTRF, SAR follow-up (AID 2489); type: functional
[23] = biological target: T4, Alkaline phosphatase, tissue-nonspecific isozyme

Compound: CCN1C(NCC(C)C)=N[C@@H](c2cccc(C(F)(F)F)c2)C(C(=O)OC)=C1C
IC50 [1]: > 100 µM (inactive)
IC50 [2]: 10 µM (active)

Compound: CSc1nc(SC(C)C(=O)O)c2c3c(sc2n1)COC(C)(C)C3 (configuration not stated)
AC50 (Salmon testes DNA): 90.3 µM (active)

Compound: CC1CCC(C(C)C)C(OCC(O)CNC(C)c2ccccc2)C1 (configuration not stated)
EC50 [3]: > 35.4 µM (not active)
IC50 (HEK293): > 35.4 µM (not active)
EC50 [4]: > 35.4 µM (not active)
EC50 [5]: 21.5 µM (inactive)

IC50 (Bcl-2-like protein 10): 36.6 µM (active)
IC50 (Estrogen receptor): 24.9 µM (active)
Compound: CN(C)S(=O)(=O)N(CC(=O)N(Cc1ccccc1)Cc1ccccc1)c1ccccc1

Compound: Cc1cc(C)c2c(=O)n(CC(=O)NC3CCCC3)sc2n1
IC50 [6]: 7.6 µM (active)
IC50 [7]: 42.7 µM (active)
IC50 [8]: > 80 µM (inactive)
IC50 [9]: > 100 µM (inactive)

AC50 (Cytochrome P450 2D6): 3.16 µM (inconclusive)
Compound: COC(=O)NC(c1ccc(F)cc1)C(C(C)=O)C(=O)OC (configuration not stated)

IC50 [10]: 49.8 µM (active)
EC50 [11]: 8.73 µM (active)
EC50 [12]: 13.7 µM (active)
EC50 [13]: 14.1 µM (active)
Compound: Cc1nc2c3ccccc3nc(NNC(=O)CCC(=O)NCCN3CCN(c4ccccc4)CC3)n2n1

Compound: O=C1NN(c2ccccc2)C(=O)C2C1C1C=CC2C12CC2 (configuration not stated)
AC50 [14]: 18.8 µM (active)

Compound: Nc1nc(-c2cc(O)ccc2[N+](=O)[O-])cc(-c2ccccc2)c1[N+](=O)[O-]
AC50 [15]: 1.11 µM (active)
IC50 [16]: 23.9 µM (active)
IC50 [17]: > 100 µM (inactive)
IC50 (Prothrombin): 53 µM (active)
IC50 [18]: > 66.6 µM (inactive)
IC50 [19]: 9.51 µM (active)
AC50 [20]: > 52 µM (inactive)
AC50 (Caspase-6): 10.7 µM (active)
AC50 (cells): 42.5 µM (active)

IC50 (SUMO E1/E2): 2.51 µM (active)
IC50 [21]: 22 µM (active)
IC50 [22]: 24.7 µM (active)
Compound: COc1ccccc1CNC(=O)c1cc(-c2ccco2)nc2ccccc12

EC50 [23]: > 100 µM (not active)
Compound: Oc1ccccc1/C=N/Nc1cccc2cccnc12
